Measurements: ChEMBL document CHEMBL3808361, “Synthesis of 4-(thiazol-2-ylamino)-benzenesulfonamides with carbonic anhydrase I, II and IX inhibitory activity and cytotoxic effects against breast cancer cell lines” (Bioorg Med Chem, 2016)

Experiments:
MCF7 = experiment: cells; settings: Homo sapiens, MCF7, 24 h
Description: Cytotoxicity against human MCF7 cells assessed as cell survivability after 24 hrs by crystal violet staining based microscopic analysis

Carbonic anhydrase 9 = Carbonic anhydrase 9 (Homo sapiens, UniProt Q16790)
Description: Inhibition of human recombinant CA9 preincubated for 15 mins prior to testing by stopped flow CO2 hydrase assay

Row | SMILES | IC50 (MCF7) | Ki (Carbonic anhydrase 9)
1 | CN(C)c1ccc(-c2nc(NNc3csc(Nc4ccc(S(N)(=O)=O)cc4)n3)[nH]c(=O)c2C#N)cc1 | 89.7 µM | –
2 | NS(=O)(=O)c1ccc(Nc2nc(Nc3ccc(C(=O)O)cc3)cs2)cc1 | 22.1 µM | 0.0088 µM
3 | NS(=O)(=O)c1ccc(Nc2nc(NN3C(=O)/C(=C/c4ccc(Cl)cc4)N=C3c3ccccc3)cs2)cc1 | > 150 µM | 0.0292 µM
4 | NS(=O)(=O)c1ccc(Nc2csc(Nc3ccc(S(N)(=O)=O)cc3)n2)cc1 | 21.5 µM | 0.0073 µM
5 | N#Cc1c(-c2ccc(Cl)cc2)nc(Sc2csc(Nc3ccc(S(N)(=O)=O)cc3)n2)[nH]c1=O | 86.6 µM | –
6 | NC(N)=NS(=O)(=O)c1ccc(N/N=C2\SC(Nc3ccc(S(N)(=O)=O)cc3)=NC2=O)cc1 | 11.9 µM | 0.0085 µM
7 | NS(=O)(=O)c1ccc(Nc2nc(Nc3ccc(F)cc3)cs2)cc1 | 12 µM | 0.0056 µM
8 | N#Cc1c(-c2ccccc2)nc(Sc2csc(Nc3ccc(S(N)(=O)=O)cc3)n2)[nH]c1=O | > 150 µM | –
9 | NS(=O)(=O)c1ccc(Nc2nc(NN3C(=O)/C(=C/c4ccccc4)N=C3c3ccc(Cl)cc3)cs2)cc1 | > 150 µM | –
10 | NS(=O)(=O)c1ccc(NC2=NC(=O)/C(=N/Nc3ccc(Cl)cc3)S2)cc1 | 10.7 µM | –
11 | NS(=O)(=O)c1ccc(NC2=NC(=O)/C(=N/Nc3ccc(C(=O)O)cc3)S2)cc1 | 5.45 µM | 0.0064 µM
12 | CN(C)c1ccc(/C=C2\N=C(c3ccccc3)N(Nc3csc(Nc4ccc(S(N)(=O)=O)cc4)n3)C2=O)cc1 | 38.9 µM | –
13 | NS(=O)(=O)c1ccc(Nc2nc(NN3C(=O)/C(=C/c4ccccc4)N=C3c3ccccc3)cs2)cc1 | 45.9 µM | –
14 | NS(=O)(=O)c1ccc(N/N=C2\SC(Nc3ccc(S(N)(=O)=O)cc3)=NC2=O)cc1 | 2.79 µM | 0.0058 µM
15 | NS(=O)(=O)c1ccc(Nc2nc(NN3C(=O)/C(=C/c4ccc(Cl)cc4)N=C3c3ccc(Cl)cc3)cs2)cc1 | 136 µM | –
16 | NS(=O)(=O)c1ccc(Nc2nc(N3CCCCC3)cs2)cc1 | 24.3 µM | 0.0067 µM
17 | N#Cc1c(-c2ccccc2)nc(NNc2csc(Nc3ccc(S(N)(=O)=O)cc3)n2)[nH]c1=O | > 150 µM | 0.0065 µM
18 | CN(C)c1ccc(-c2nc(Sc3csc(Nc4ccc(S(N)(=O)=O)cc4)n3)[nH]c(=O)c2C#N)cc1 | 85 µM | –
19 | CN(C)c1ccc(/C=C2\N=C(c3ccc(Cl)cc3)N(Nc3csc(Nc4ccc(S(N)(=O)=O)cc4)n3)C2=O)cc1 | 44.5 µM | –
20 | N#Cc1c(-c2ccc(Cl)cc2)nc(NNc2csc(Nc3ccc(S(N)(=O)=O)cc3)n2)[nH]c1=O | > 150 µM | –
21 | O=c1[nH]cc(F)c(=O)[nH]1 [FLUOROURACIL] | 11.1 µM | –
